According to patent publication US20170355705A1 (GlaxoSmithKline Intellectual Property (No.2) Limited, priority 2014, published 2017):
Counter-ions that a name gives are not always drawn. Like-named read-outs stand apart in the source and are kept apart here.

Biological target: T1, SIRT1 (Homo sapiens, UniProt Q96EB6)
T1 sequence (Q96EB6 1-747): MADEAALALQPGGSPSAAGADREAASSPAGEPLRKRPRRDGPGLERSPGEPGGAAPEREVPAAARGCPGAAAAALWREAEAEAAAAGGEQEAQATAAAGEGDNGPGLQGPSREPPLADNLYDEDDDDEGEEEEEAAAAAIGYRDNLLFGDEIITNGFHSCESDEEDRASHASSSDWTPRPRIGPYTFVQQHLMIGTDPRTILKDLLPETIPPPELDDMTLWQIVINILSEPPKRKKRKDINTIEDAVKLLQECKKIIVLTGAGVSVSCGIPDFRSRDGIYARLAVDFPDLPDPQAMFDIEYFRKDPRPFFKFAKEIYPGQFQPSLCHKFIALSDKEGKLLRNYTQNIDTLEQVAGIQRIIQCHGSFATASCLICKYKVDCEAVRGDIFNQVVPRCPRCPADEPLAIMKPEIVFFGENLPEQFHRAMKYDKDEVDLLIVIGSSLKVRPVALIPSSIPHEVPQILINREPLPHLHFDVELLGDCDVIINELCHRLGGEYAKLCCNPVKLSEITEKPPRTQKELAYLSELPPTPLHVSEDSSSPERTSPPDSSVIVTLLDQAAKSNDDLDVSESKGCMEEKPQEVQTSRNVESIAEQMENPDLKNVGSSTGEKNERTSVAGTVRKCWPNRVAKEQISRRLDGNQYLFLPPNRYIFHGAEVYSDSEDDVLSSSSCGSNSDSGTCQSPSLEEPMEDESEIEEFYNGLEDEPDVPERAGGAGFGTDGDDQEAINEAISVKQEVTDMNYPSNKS
Assay: Trp mass spectrometry assay of SIRT1 activity (EC1.5, percent maximum activation)
Format: biochemical
Source text: Mass spectrometry based assays were used to identify modulators of SIRT1 activity. […] The peptide was labeled with the fluorophore 5TMR (excitation 540 nm/emission 580 nm) at the C-terminus. The sequence of the peptide substrate was based on p53 with several modifications. In addition, the methionine residue naturally present in the sequence was replaced with the norleucine because the methionine may be susceptible to oxidation during synthesis and purification.
The Trp mass spectrometry assay was conducted as follows. […] The SIRT1 protein was obtained by cloning the SirT1 gene into a T7-promoter containing vector, which was then expressed in BL21(DE3) bacterial cells and purified as described in further detail below. Test compound was added at varying concentrations to this reaction mixture and the resulting reactions were monitored. After the 25 minute incubation with SIRT1, 10 μL of 10% formic acid was added to stop the reaction. The resulting reactions were sealed and frozen for later mass spec analysis. The relative SIRT1 activity was then determined by measuring the amount of O-acetyl-ADP-ribose (OAADPR) formed (or, alternatively, the amount of deacetylated Trp peptide generated) by the NAD-dependent sirtuin deacetylation reaction in the presence of varying concentrations of the test compound versus control reactions lacking the test compound. The degree to which the test agent activated deacetylation by SIRT1 was expressed as EC1.5 (i.e., the concentration of compound required to increase SIRT1 activity by 50% over the control lacking test compound), and Percent Maximum Activation (i.e., the maximum activity relative to control (100%) obtained for the test compound).
This time point was the same as that used for test compounds and, within the linear range, the endpoint represents a change in velocity.
For the above assay, SIRT1 protein was expressed and purified as follows. The SirT1 gene was cloned into a T7-promoter containing vector and transformed into BL21(DE3). The protein was expressed by induction with 1 mM IPTG as an N-terminal His-tag fusion protein at 18° C. overnight and harvested at 30,000×g. Cells were lysed with lysozyme in lysis buffer (50 mM Tris-HCl, 2 mM Tris[2-carboxyethyl]phosphine (TCEP), 10 μM ZnCl2, 200 mM NaCl) and further treated with sonication for 10 min for complete lysis. The protein was purified over a Ni-NTA column (Amersham) and fractions containing pure protein were pooled, concentrated and run over a sizing column (Sephadex S200 26/60 global). The peak containing soluble protein was collected and run on an Ion-exchange column (MonoQ). Gradient elution (200 mM-500 mM NaCl) yielded pure protein. This protein was concentrated and dialyzed against dialysis buffer (20 mM Tris-HCl, 2 mM TCEP) overnight. The protein was aliquoted and frozen at −80° C. until further use.
“NT” means not tested; “ND” means not determinable.

[1] = Trp mass spectrometry assay, 0.5 μM peptide substrate, 120 μM βNAD+, 10 nM SIRT1, 25 minutes at 25° C.
[2] = Trp mass spectrometry assay, EC1.5 = concentration giving 150% activation of SIRT1
[3] = Trp mass spectrometry assay, percent maximum activation of SIRT1

## O=C(Nc1cnccn1)N1c2nc(N3CCOC(C4CC4)C3)ccc2N2CC[C@H]1C2 (stereo partly drawn)
[1]
  TRP MAX RESP (percent maximum fold activation): A (Fold activation ≧150%)

## CC[C@@H]1CN(c2ccc3c(n2)N(C(=O)Nc2cnccn2)[C@H]2CCN3C2)CCO1
[1]
  TRP MAX RESP (percent maximum fold activation): A (Fold activation ≧150%)

## Cc1cc(-c2ccc3c(n2)N(C(=O)N2CCC(C)C2)[C@H]2CCN3C2)ccn1 (single isomer, unassigned) [Example 193]
[2]
  TRP Activity (EC1.5): C (EC1.5>25 μM)
[3]
  TRP MAX RESP (percent maximum fold activation): B (Fold Activation <150%)

## CC1CNCCN1c1ccc2c(n1)N(C(=O)Nc1cnccn1)[C@H]1CCN2C1 (single isomer, unassigned) [Example 228]
[1]
  TRP Activity (EC1.5, concentration of test compound that results in 150% activation of SIRT1): C (EC1.5>25 μM)
  TRP MAX RESP (percent maximum fold activation): B (Fold Activation <150%)

## CC1CN(c2ccc3c(n2)N(C(=O)Nc2cnccn2)[C@H]2CCN3C2)CCN1 (single isomer, unassigned) [Example 229]
[1]
  TRP Activity (EC1.5, concentration of test compound that results in 150% activation of SIRT1): C (EC1.5>25 μM)
  TRP MAX RESP (percent maximum fold activation): B (Fold Activation <150%)

## O=C(Nc1cnccn1)N1c2nc(N3CCOC(C(F)(F)F)C3)ccc2N2CC[C@H]1C2 (single isomer, unassigned) [Example 230]
[1]
  TRP Activity (EC1.5, concentration of test compound that results in 150% activation of SIRT1): B (EC1.5 1-25 μM)
  TRP MAX RESP (percent maximum fold activation): A (Fold activation ≧150%)

## O=C(Nc1cnccn1)N1c2nc(N3CCOC(C(F)(F)F)C3)ccc2N2CC[C@H]1C2 (single isomer, unassigned) [Example 231]
[1]
  TRP Activity (EC1.5, concentration of test compound that results in 150% activation of SIRT1): A (EC1.5<1 μM)
  TRP MAX RESP (percent maximum fold activation): A (Fold activation ≧150%)

## Cc1cc(-c2ccc3c(n2)N(C(=O)Nc2cc(CCC(O)CO)ccn2)[C@H]2CCN3C2)ccn1 (single isomer, unassigned) [Example 359]
[1]
  TRP Activity (EC1.5, concentration of test compound that results in 150% activation of SIRT1): B (EC1.5 1-25 μM)
  TRP MAX RESP (percent maximum fold activation): A (Fold activation ≧150%)

## Cc1cc(-c2ccc3c(n2)N(C(=O)Nc2cnccn2)C2CCN3C2)ccn1 (stereo in doubt) [Example 149, (4R)-7-(2-methylpyridin-4-yl)-N-(pyrazin-2-yl)-3,4-dihydro-1,4-methanopyrido[2,3-b][1,4]diazepine-5(2H)-carboxamide]
[2]
  TRP Activity (EC1.5): B (EC1.5 1-25 μM)
[3]
  TRP MAX RESP (percent maximum fold activation): A (Fold activation ≧150%)

## O=C(Nc1ccnc(OCC(O)CO)c1)N1c2nc(-c3cccc(C(F)(F)F)c3)ccc2N2CC[C@H]1C2 (stereo in doubt) [Example 170, (4S)-N-(2-((S)-2,3-dihydroxypropoxy)pyridin-4-yl)-7-(3-(trifluoromethyl)phenyl)-3,4-dihydro-1,4-methanopyrido[2,3-b][1,4]diazepine-5(2H)-carboxamide]
[2]
  TRP Activity (EC1.5): A (EC1.5<1 μM)
[3]
  TRP MAX RESP (percent maximum fold activation): A (Fold activation ≧150%)

## Cc1cc(-c2ccc3c(n2)N(C(=O)Nc2cc(-c4cnc(C)o4)ccn2)C2CCN3C2)ccn1 (stereo in doubt) [Example 335, (4S)-N-(4-(2-methyloxazol-5-yl)pyridin-2-yl)-7-(2-methylpyridin-4-yl)-3,4-dihydro-1,4-methanopyrido[2,3-b][1,4]diazepine-5(2H)-carboxamide, Hydrochloride]
[1]
  TRP Activity (EC1.5, concentration of test compound that results in 150% activation of SIRT1): B (EC1.5 1-25 μM)
  TRP MAX RESP (percent maximum fold activation): A (Fold activation ≧150%)

## O=C(Nc1ccnc(OCC(O)CO)c1)N1c2nc(-c3cnn(CC(F)(F)F)c3)c(Cl)cc2N2CC[C@H]1C2 (stereo in doubt) [Example 371, (4S)-8-chloro-N-(2-((R)-2,3-dihydroxypropoxy)pyridin-4-yl)-7-(1-(2,2,2-trifluoroethyl)-1H-pyrazol-4-yl)-3,4-dihydro-1,4-methanopyrido[2,3-b][1,4]diazepine-5(2H)-carboxamide]
[1]
  TRP Activity (EC1.5, concentration of test compound that results in 150% activation of SIRT1): B (EC1.5 1-25 μM)
  TRP MAX RESP (percent maximum fold activation): A (Fold activation ≧150%)

## Cc1ccc(-c2nc3c(cc2C(F)(F)F)N2CC[C@@H](C2)N3C(=O)Nc2cccnc2)cn1 [Example 1, (4S)-7-(6-methylpyridin-3-yl)-N-(pyridin-3-yl)-8-(trifluoromethyl)-3,4-dihydro-1,4-methanopyrido[2,3-b][1,4]diazepine-5(2H)-carboxamide]
[2]
  TRP Activity (EC1.5): C (EC1.5>25 μM)
[3]
  TRP MAX RESP (percent maximum fold activation): B (Fold Activation <150%)

## Cc1ccc(-c2nc3c(cc2Br)N2CC[C@@H](C2)N3C(=O)Nc2ccccn2)cn1 [Example 2, (4S)-8-bromo-7-(6-methylpyridin-3-yl)-N-(pyridin-2-yl)-3,4-dihydro-1,4-methano pyrido[2,3-b][1,4]diazepine-5(2H)-carboxamide]
[2]
  TRP Activity (EC1.5): B (EC1.5 1-25 μM)
[3]
  TRP MAX RESP (percent maximum fold activation): A (Fold activation ≧150%)

## Cc1ccc(-c2nc3c(cc2Cl)N2CC[C@@H](C2)N3C(=O)Nc2cccnc2)cn1 [Example 3, (4S)-8-chloro-7-(6-methylpyridin-3-yl)-N-(pyridin-3-yl)-3,4-dihydro-1,4-methanopyrido[2,3-b][1,4]diazepine-5(2H)-carboxamide]
  TRP Activity (EC1.5): B (key: A: EC1.5<1 μM; B: EC1.5 1-25 μM; EC1.5>25 μM)
  TRP MAX RESP (percent maximum fold activation): A (key: A: Fold activation ≧150%; B: Fold Activation <150%)

## Cc1ccc(-c2nc3c(cc2F)N2CC[C@@H](C2)N3C(=O)Nc2ccccn2)cn1 [Example 5, (4S)-8-fluoro-7-(6-methylpyridin-3-yl)-N-(pyridin-2-yl)-3,4-dihydro-1,4-methanopyrido[2,3-b][1,4]diazepine-5(2H)-carboxamide]
[2]
  TRP Activity (EC1.5): B (EC1.5 1-25 μM)
[3]
  TRP MAX RESP (percent maximum fold activation): A (Fold activation ≧150%)

## Cc1ccc(-c2nc3c(cc2Br)N2CC[C@@H](C2)N3C(=O)Nc2cccnc2)cn1 [Example 6, (4S)-8-bromo-7-(6-methylpyridin-3-yl)-N-(pyridin-3-yl)-3,4-dihydro-1,4-methanopyrido[2,3-b][1,4]diazepine-5(2H)-carboxamide]
[2]
  TRP Activity (EC1.5): B (EC1.5 1-25 μM)
[3]
  TRP MAX RESP (percent maximum fold activation): A (Fold activation ≧150%)

## Cc1ccc(-c2nc3c(cc2F)N2CC[C@@H](C2)N3C(=O)Nc2cccnc2)cn1 [Example 7, (4S)-8-fluoro-7-(6-methylpyridin-3-yl)-N-(pyridin-3-yl)-3,4-dihydro-1,4-methanopyrido[2,3-b][1,4]diazepine-5(2H)-carboxamide]
  TRP Activity (EC1.5): B (key: A: EC1.5<1 μM; B: EC1.5 1-25 μM; EC1.5>25 μM)
  TRP MAX RESP (percent maximum fold activation): A (key: A: Fold activation ≧150%; B: Fold Activation <150%)

## Cc1ccc(-c2nc3c(cc2C)N2CC[C@@H](C2)N3C(=O)Nc2ccccn2)cn1 [Example 8, (4S)-8-methyl-7-(6-methylpyridin-3-yl)-N-(pyridin-2-yl)-3,4-dihydro-1,4-methanopyrido[2,3-b][1,4]diazepine-5(2H)-carboxamide]
[2]
  TRP Activity (EC1.5): B (EC1.5 1-25 μM)
[3]
  TRP MAX RESP (percent maximum fold activation): A (Fold activation ≧150%)
